Measurements as given in paper PMC6912361, “Systemic Toxicity Reported for CDK8/19 Inhibitors CCT251921 and MSC2530818 Is Not Due to Target Inhibition” (Cells, 2019).
Like-named read-outs stand apart in the source and are kept apart here. Values belong to the compound of their own block, whether it stands above or below them.

Legend:
CDK8/19 [1] = test: Cell-based QPCR assay of CDK8/19-dependent gene expression, HEK293 parental (WT) cells; parameters: species or system human
Procedure: All cells were cultured in DMEM (high-glucose) media supplemented with 10% fetal bovine serum (FBS) and Penicillin-Streptomycin-Glutamine (1×) at 37 °C with 5% CO2 and routinely confirmed to be free of mycoplasma.
(§1) Total RNA was extracted using RNAeasy Mini Kit (Qiagen, Germantown, MD, USA) and 1 µg of total RNA was used to generate cDNA using iScript cDNA synthesis kit (Bio-Rad Laboratories, Hercules, CA, USA). Gene expression was quantified using iTaq Universal SYBR green super mix using CFX384 Real-Time System (Bio-Rad).
The IC50 values for different inhibitors in inhibiting CDK8/19-dependent gene expression were calculated using a three-parameter least square (ordinary) fitting method with GraphPad Prism 7.0 (GraphPad Software, San Diego, CA, USA).
(§2) Cells were pre-treated with different concentrations of CDK8/19 inhibitors for 1 h and then 10 ng/mL TNFα, an inducer of transcription factor NFκB, which is potentiated by CDK8/19 [5], was added for 2 h before RNA extraction. QPCR was carried out to quantify CDK8/19-regulated expression of NFκB-inducible genes CXCL1 and CXCL8 and the basal expression of MYC.

CDK8 = CDK8 (Homo sapiens, UniProt P49336); test: Cell-based QPCR assay of CDK8/19-dependent gene expression, HEK293 CDK19 single-knockout (19KO) cells; parameters: CDK19 single-knockout (19KO); endogenous in cells; host or cells: HEK293 CDK19 knockout (19KO); conditions: HEK293 19KO, 1 h pre-treatment, then 10 ng/mL TNFα 2 h
Sequence of CDK8 (P49336 whole entry): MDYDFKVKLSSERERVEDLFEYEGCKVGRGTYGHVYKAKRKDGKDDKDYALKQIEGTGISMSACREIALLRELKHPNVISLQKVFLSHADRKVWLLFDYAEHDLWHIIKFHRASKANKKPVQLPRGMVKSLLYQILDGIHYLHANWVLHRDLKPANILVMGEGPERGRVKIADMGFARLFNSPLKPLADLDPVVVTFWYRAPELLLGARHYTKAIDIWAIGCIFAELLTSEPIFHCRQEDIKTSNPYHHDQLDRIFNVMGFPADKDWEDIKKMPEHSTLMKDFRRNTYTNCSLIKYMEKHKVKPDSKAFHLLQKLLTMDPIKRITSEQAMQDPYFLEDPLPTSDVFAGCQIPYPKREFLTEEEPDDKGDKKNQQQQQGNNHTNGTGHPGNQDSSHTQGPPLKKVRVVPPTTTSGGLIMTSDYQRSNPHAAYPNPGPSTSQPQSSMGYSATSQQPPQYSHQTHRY
Sequence of CDK8 (P24863 whole entry partner): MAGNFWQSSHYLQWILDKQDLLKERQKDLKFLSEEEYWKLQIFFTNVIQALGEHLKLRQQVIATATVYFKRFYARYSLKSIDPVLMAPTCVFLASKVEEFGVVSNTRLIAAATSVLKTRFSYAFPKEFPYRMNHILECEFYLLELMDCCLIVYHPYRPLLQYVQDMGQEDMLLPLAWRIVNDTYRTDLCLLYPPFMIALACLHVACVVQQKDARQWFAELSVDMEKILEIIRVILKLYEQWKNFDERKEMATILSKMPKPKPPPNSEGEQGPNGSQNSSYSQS
Procedure: (§3) CDK8/CDK19 single knockout and double knockout derivatives of human embryonic kidney (HEK) 293 cells (ATCC CRL-1573) were generated as previously described [18]. All cells were cultured in DMEM (high-glucose) media supplemented with 10% fetal bovine serum (FBS) and Penicillin-Streptomycin-Glutamine (1×) at 37 °C with 5% CO2 and routinely confirmed to be free of mycoplasma.
as §1
(§4) The IC50 values for different inhibitors in inhibiting CDK8/19-dependent gene expression were calculated using a three-parameter least square (ordinary) fitting method with GraphPad Prism 7.0 (GraphPad Software, San Diego, CA, USA). The Kruskal–Wallis non-parametric ANOVA was used to compare gene expression levels under no-inhibitor conditions between wild-type cells and knockout derivatives (8KO, 19KO and dKO) with GraphPad Prism 7.0.
as §2

CDK19 = CDK19 (Homo sapiens, UniProt Q9BWU1); test: Cell-based QPCR assay of CDK8/19-dependent gene expression, HEK293 CDK8 single-knockout (8KO) cells; parameters: CDK8 single-knockout (8KO); endogenous in cells; host or cells: HEK293 CDK8 knockout (8KO); conditions: HEK293 8KO, 1 h pre-treatment, then 10 ng/mL TNFα 2 h
Sequence of CDK19 (Q9BWU1 whole entry): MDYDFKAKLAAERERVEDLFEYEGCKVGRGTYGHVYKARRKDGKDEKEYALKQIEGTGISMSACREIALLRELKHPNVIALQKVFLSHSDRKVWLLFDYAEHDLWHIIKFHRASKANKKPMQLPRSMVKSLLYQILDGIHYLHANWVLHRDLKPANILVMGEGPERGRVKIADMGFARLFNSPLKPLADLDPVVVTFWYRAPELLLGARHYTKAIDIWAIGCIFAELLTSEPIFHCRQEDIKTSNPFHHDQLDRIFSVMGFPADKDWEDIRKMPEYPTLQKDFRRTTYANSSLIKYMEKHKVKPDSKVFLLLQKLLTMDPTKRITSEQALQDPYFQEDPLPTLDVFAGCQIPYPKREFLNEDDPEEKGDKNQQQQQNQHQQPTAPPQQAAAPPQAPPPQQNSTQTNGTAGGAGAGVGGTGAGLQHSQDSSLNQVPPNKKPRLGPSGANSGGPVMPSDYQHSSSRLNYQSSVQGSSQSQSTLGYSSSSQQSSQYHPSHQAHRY
Sequence of CDK19 (P24863 whole entry partner): as the sequence (P24863 whole entry partner) above
Procedure: as §3, §1, §4, §2

[2] = system: STAT1 S727 phosphorylation; test: Western blot of STAT1 S727 phosphorylation in 293-dKO cells; type: cell-based, human; conditions: for CDK8/19-independent STAT1 S727 phosphorylation in dKO 293 cells, effect of cytotoxic drugs: 3 h, 50 μM etoposide, 50 nM Taxol; for Basal STAT1 S727 phosphorylation in dKO cells, effect of cytokines: 20 ng/mL EGF, 40 ng/mL TNFα, 1 h after 24 h serum starvation
Procedure: Cells were cultured in 60-mm dishes and treated under different conditions before being lysed in RIPA lysis buffer with protease/phosphatase inhibitor cocktail. The protein concentration of extracts was determined using the DC protein assay (Bio-Rad Laboratories). Protein samples (50 μg) were resolved on 4–12% Express-Plus PAGE gels in Tris-MOPS (SDS) running buffer (GenScript, Piscataway, NJ, USA), transferred to PVDF membranes and incubated at 4 °C overnight with primary antibodies STAT1 (sc-592, Santa Cruz Biotechnology, Dallas, TX, USA) and pSTAT1-Ser727 (#8826, Cell Signaling Technology, Danvers, MA, USA) followed by anti-rabbit (NA934, GE Healthcare, Chicago, IL, USA) secondary antibodies. Bands were visualized with Western Lighting Plus ECL detection reagent (Perkin Elmer, Waltham, MA, USA) using ChemiDoc Touch™ (Bio-Rad). Images were analyzed using ImageLab (Bio-Rad) and ImageJ (version 1.52p) software for protein signal quantification.

[3] = system: non-dechorionated embryos of zebrafish TU strain; test: Zebrafish toxicity assay, non-dechorionated embryos (TU strain); type: in vivo; conditions: 2 μM; TU strain
Procedure: The toxicity studies in non-dechorionated embryos of zebrafish TU strain were approved by the Institutional Animal Care and Use Committee of the University of South Carolina. The studies were conducted in sterile 24-well plates with one 24 hpf embryo in each well in a 1 mL volume of egg water. For each plate, 6 wells were treated with vehicle control and the other 18 wells (i.e., biological replicates) were treated with different CDK8/19 inhibitors at different concentrations. […] All the data from the plates with at least five healthy vehicle-treated embryos on day 5 were compiled together for final data analysis.

CDK8/19 [4] = test: Wash-off study: stability of inhibition of CDK8/19-dependent gene expression in 293 cells; type: cell-based, human; conditions: 30 nM, 3 h, then drug-free media
Source text: We then asked if such toxicity could be associated with the stability of CDK8/19 inhibition. […] Then the drug-containing media were removed, cells were washed twice with PBS and cultured in fresh drug-free media for different periods of time before being lysed for RNA extraction and QPCR analysis of mRNA expression of MYC, JUN and ADAMTS1.

IC50 (CDK8; read-out: IC50, CXCL1 mRNA expression, 19KO): 5.2 nM
IC50 (CDK8; read-out: IC50, CXCL8 mRNA expression, 19KO): 4.2 nM
IC50 (CDK8; read-out: IC50, MYC mRNA expression, 19KO): 2.5 nM
IC50 (CDK19; read-out: IC50, CXCL1 mRNA expression, 8KO): 5.4 nM
IC50 (CDK19; read-out: IC50, CXCL8 mRNA expression, 8KO): 5.4 nM
IC50 (CDK19; read-out: IC50, MYC mRNA expression, 8KO): 6.2 nM
Compound: CN(C)C(=O)Cc1ccc(N2CCCN(c3ccnc4sc(C(N)=O)c(N)c34)CC2)cc1 [15w]
IC50 (CDK8/19 [1]; HEK293 WT; 1 h pre-treatment, then 10 ng/mL TNFα 2 h; QPCR; read-out: IC50, CXCL1 mRNA expression, WT): 6.1 nM
IC50 (CDK8/19 [1]; HEK293 WT; 1 h pre-treatment, then 10 ng/mL TNFα 2 h; QPCR; read-out: IC50, CXCL8 mRNA expression, WT): 5.5 nM
IC50 (CDK8/19 [1]; HEK293 WT; 1 h pre-treatment, then 10 ng/mL TNFα 2 h; QPCR; read-out: IC50, MYC mRNA expression, WT): 4 nM

Compound: CC(=O)O[C@H]1C(=O)[C@@]2(C)[C@H]([C@H](OC(=O)c3ccccc3)[C@]3(O)C[C@H](OC(=O)[C@H](O)[C@@H](NC(=O)c4ccccc4)c4ccccc4)C(C)=C1C3(C)C)[C@]1(OC(C)=O)CO[C@@H]1C[C@@H]2O [Taxol]
CDK8/19-independent STAT1 S727 phosphorylation in dKO 293 cells, effect of cytotoxic drugs [2]: increased

Compound: CN(C)C1CC23CCC4(O2)C(=CCC2(C)C(c5ccc6ccncc6c5)=CCC24)C=C3C(O)C1O (stereo not drawn) [dCA, 16-didehydro-cortistatin A]
Toxicity in zebrafish assays at higher concentrations [3]: moderate but significant toxicity
Stability of CDK8/19 inhibition after wash-off (MYC, JUN, ADAMTS1 mRNA) (CDK8/19 [4]): by far the most stable
IC50 (CDK8/19 [1]; read-out: IC50, CXCL1 mRNA expression, WT; HEK293 WT; 1 h pre-treatment, then 10 ng/mL TNFα 2 h; QPCR): 1.3 nM
IC50 (CDK8/19 [1]; read-out: IC50, CXCL8 mRNA expression, WT; HEK293 WT; 1 h pre-treatment, then 10 ng/mL TNFα 2 h; QPCR): 1.4 nM
IC50 (CDK8/19 [1]; read-out: IC50, MYC mRNA expression, WT; HEK293 WT; 1 h pre-treatment, then 10 ng/mL TNFα 2 h; QPCR): 1.5 nM
IC50 (CDK8; IC50, CXCL1 mRNA expression, 19KO): 1.4 nM
IC50 (CDK8; IC50, CXCL8 mRNA expression, 19KO): 1 nM
IC50 (CDK8; IC50, MYC mRNA expression, 19KO): 0.5 nM
IC50 (CDK19; IC50, CXCL1 mRNA expression, 8KO): 1.1 nM
IC50 (CDK19; IC50, CXCL8 mRNA expression, 8KO): 0.8 nM
IC50 (CDK19; IC50, MYC mRNA expression, 8KO): 0.6 nM

Compound: COc1cc([C@@H]2c3cc4c(cc3[C@@H](O[C@@H]3O[C@@H]5CO[C@@H](C)O[C@H]5[C@H](O)[C@H]3O)[C@H]3COC(=O)[C@H]23)OCO4)cc(OC)c1O [etoposide]
CDK8/19-independent STAT1 S727 phosphorylation in dKO 293 cells, effect of cytotoxic drugs [2]: increased

Compound: EGF: Recombinant human epidermal growth factor (NSDSECPLSHDGYCLHDGVCMYIEALDKYACNCVVGYIGERCQYRDLKWWELR; UniProt P01133 971-1023, looked up)
Basal STAT1 S727 phosphorylation in dKO cells, effect of cytokines [2]: increased

Compound: TNFα
Basal STAT1 S727 phosphorylation in dKO cells, effect of cytokines [2]: increased
